{
  "source": "patent US10251861B2",
  "about": "“Methods for treating burn and scar injury using tocotrienol compositions” (Ohio State Innovation Foundation, priority 2012, dated 2019)",
  "key": {"NF-KB activation": {"tested_on": "NF-KB activation", "settings": "cited from earlier work; for tumor necrosis factor a (TNF-a)-induced NF-KB activation: similar dose of both compounds"}, "[1]": {"settings": "per day; Food and Nutrition Board of the Institute of Medicine; also printed as 1,500 IU; cited from earlier work"}, "[2]": {"assay": "Oral tocotrienol supplementation in animals, tissue levels", "type": "in vivo", "method": "(§1) The inventors have also observed that oral supplementation in animals results in enhancement of tocotrienol in tissues such as skin, brain, lung etc. Levels of tocotrienol in human tissues following supplementation is currently being investigated by the inventors' laboratory (IRB protocol 200500034). The patients in the inventors' ongoing study are being orally supplemented with 200 mg twice a day. Recently, pharmacokinetic studies have been performed where humans have been orally supplemented with tocotrienol (dose: 692 mg). Based on this work and the inventors' current study, the inventors plan to use (200×2=400 mg/day; note that for alpha-tocopherol 1 mg=1.51 U) for the inventors' study."}, "[3]": {"assay": "Ongoing IRB protocol 200500034, oral TCT supplementation before surgery", "type": "in vivo, human", "method": "In this protocol, patients are being supplemented 200 mg TCT twice a day for a minimum of 4 weeks prior to surgery. The maximum supplementation has been for over a year (currently on-going supplementation)\nas §1\nIn this protocol, patients are being supplemented 200 mg TCT twice a day for a minimum of 4 weeks prior to surgery.\nIn this protocol, patients are being supplemented 200 mg TCT twice a day for a minimum of 4 weeks prior to surgery. The maximum supplementation has been for over a year (currently on-going supplementation)."}, "IL-1 and IL-6 in serum": {"tested_on": "IL-1 and IL-6 in serum", "settings": "treated rats; vs before nicotine and tocotrienol treatment; cited from earlier work"}, "HMG-CoA reductase": {"target": "T1, HMG-CoA reductase (Homo sapiens, UniProt P04035)", "T1 sequence (P04035 1-888)": "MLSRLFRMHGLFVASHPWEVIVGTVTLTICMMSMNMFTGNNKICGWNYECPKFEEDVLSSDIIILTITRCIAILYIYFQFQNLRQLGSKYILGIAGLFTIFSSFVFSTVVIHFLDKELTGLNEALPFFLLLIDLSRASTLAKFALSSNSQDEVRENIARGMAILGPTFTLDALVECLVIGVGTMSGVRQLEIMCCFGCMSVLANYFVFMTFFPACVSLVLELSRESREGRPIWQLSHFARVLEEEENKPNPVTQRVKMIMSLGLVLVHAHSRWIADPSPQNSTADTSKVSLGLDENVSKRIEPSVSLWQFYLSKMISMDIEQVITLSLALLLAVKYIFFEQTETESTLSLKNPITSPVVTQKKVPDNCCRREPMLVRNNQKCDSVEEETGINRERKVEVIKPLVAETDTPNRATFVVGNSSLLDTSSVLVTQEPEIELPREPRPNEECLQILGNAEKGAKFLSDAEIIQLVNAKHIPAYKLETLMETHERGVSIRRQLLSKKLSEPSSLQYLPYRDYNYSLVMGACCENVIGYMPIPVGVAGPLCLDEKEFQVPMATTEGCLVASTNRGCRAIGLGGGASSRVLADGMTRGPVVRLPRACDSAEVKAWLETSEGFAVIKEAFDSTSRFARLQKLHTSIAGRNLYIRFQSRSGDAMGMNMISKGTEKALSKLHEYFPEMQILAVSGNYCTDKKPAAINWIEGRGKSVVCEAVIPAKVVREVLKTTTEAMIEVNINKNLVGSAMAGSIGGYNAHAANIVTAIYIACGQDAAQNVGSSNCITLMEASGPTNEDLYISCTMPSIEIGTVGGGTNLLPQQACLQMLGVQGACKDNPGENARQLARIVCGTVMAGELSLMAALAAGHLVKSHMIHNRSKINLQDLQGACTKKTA", "settings": "micromolar amounts; cited from earlier work"}, "[4]": {"tested_on": "adhesion molecules (ICAM, VCAM, and E-selectin)", "settings": "compared among forms of vitamin E; cited from earlier work"}, "burn-induced scar": {"tested_on": "burn-induced scar", "assay": "Burn-induced scar outcome after topical tocotrienol (FIG. 1)", "type": "in vivo", "settings": "topical treatment vs placebo; 65 days after burn injury; n=8; p<0.05", "method": "(§2) FIG. 1A-FIG. 1D. Topical vitamin E alpha-tocotrienol improves scar outcome. Alpha-tocotrienol content and scar outcomes were assessed in skin 65 days after burn injury. Representative placebo and T3-treated burn scars depicted (A) (scale bar=1 cm). […] Color (C) and contour (D) were judged by blinded reviewers according to their respective 5-point scales. […] Data are mean+SD (n=8); *p<0.05."}, "[5]": {"assay": "Alpha-tocotrienol content in burn scar tissue (FIG. 1B)", "type": "in vivo", "settings": "topical treatment vs placebo; skin 65 days after burn injury; n=8; p<0.05", "method": "as §2"}, "IKBa kinase (IKK)": {"tested_on": "IKBa kinase (IKK)", "settings": "cited from earlier work"}, "Akt": {"tested_on": "Akt", "settings": "cited from earlier work"}},
  "data": [
    {"compound": "Cc1c(O)cc2c(c1C)O[C@](C)(CCC[C@H](C)CCC[C@H](C)CCCC(C)C)CC2", "note": "[gamma-tocopherol]", "values": [
      {"measurement": "tumor necrosis factor a (TNF-a)-induced NF-KB activation", "setting": "NF-KB activation", "value": "no effect"}
    ]},
    {"compound": "Cc1c(C)c2c(c(C)c1O)CC[C@@](C)(CCC[C@H](C)CCC[C@H](C)CCCC(C)C)O2", "note": "[alpha-tocopherol]", "values": [
      {"measurement": "upper tolerable intake level (UL)", "setting": "[1]", "value": "1,000 mg"}
    ]},
    {"compound": "tocotrienol", "values": [
      {"measurement": "tocotrienol in tissues such as skin, brain, lung", "setting": "[2]", "value": "enhancement"},
      {"measurement": "related adverse effects", "setting": "[3]; 200 mg TCT twice a day, minimum 4 weeks prior to surgery, maximum over a year", "value": "no related adverse affects"},
      {"measurement": "reaching the skin", "setting": "[3]; oral dosage of 400 mg per day", "value": "sufficient to reach the skin"},
      {"measurement": "appearance of scars", "setting": "[3]; pre-treatment with TCT, observations from ongoing study", "value": "Improves"},
      {"measurement": "serum levels of IL-6", "setting": "IL-1 and IL-6 in serum", "value": "significantly lower"},
      {"measurement": "activity of HMG-CoA reductase", "setting": "HMG-CoA reductase", "value": "suppress"},
      {"measurement": "reducing endothelial expression of adhesion molecules and adhesion to monocytes", "setting": "[4]", "value": "most effective"},
      {"measurement": "scar color, 5-point scale, blinded reviewers", "setting": "burn-induced scar", "value": "significantly improved"},
      {"measurement": "scar contour, 5-point scale, blinded reviewers", "setting": "burn-induced scar", "value": "significantly improved"},
      {"measurement": "alpha-tocotrienol content in scar tissue", "setting": "[5]", "value": "significantly increased"}
    ]},
    {"compound": "CC(C)=CCC/C(C)=C/CC/C(C)=C/CC[C@]1(C)CCc2cc(O)c(C)c(C)c2O1", "note": "[gamma-tocotrienol]", "values": [
      {"measurement": "TNF-induced activation of IKBa kinase (IKK)", "setting": "IKBa kinase (IKK)", "value": "inhibiting"},
      {"measurement": "TNF induced Akt activation", "setting": "Akt", "value": "inhibit"},
      {"measurement": "NF-KB activation induced by phorbol myristate acetate, okadaic acid, lipopolysaccharide, cigarette smoke, IL-1I, and epidermal growth factor", "setting": "NF-KB activation", "value": "abolished"},
      {"measurement": "TAK 1/TAB 1-induced NF-KB dependant reporter gene expression", "setting": "NF-KB activation", "value": "inhibit"},
      {"measurement": "constitutive NF-KB activation expressed by certain tumor cells", "setting": "NF-KB activation", "value": "nullified"},
      {"measurement": "tumor necrosis factor a (TNF-a)-induced NF-KB activation", "setting": "NF-KB activation", "value": "completely abolished"}
    ]}
  ]
}
